Results reported in patent US6706664B1, “Benzoxazole compounds, process for the preparation thereof and herbicides” (UBE Industries, Ltd., priority 1999, dated 2004).

How the values were obtained:
Set-up in all cases: key: 0: normal development; 1: Less damaged; 2: Slightly damaged; 3: Moderately damaged; 4: Severely damaged; 5: All killed
young rice plant = assay: Herbicidal test for paddy field; type: in vivo; settings: paddy field pot, 500 g/ha dropwise at 1.5 leaf stage of barnyardgrass, 3 weeks, rank vs non-treated
Method: (§1) Wagner pots, each having an area of 1/5000 are, were packed with Ube soil (alluvial soil) and planted with seeds or tubers of young rice plant, barnyardgrass, bulrush, flat sedge and monochoria. Then, the pots were filled with water to a depth of 3 cm.
(§2) Each wettable powder of the desired compounds (I) shown in Table 1 prepared in accordance with Example 2 was diluted with water containing a surfactant (0.05%) and subjected to dropwise addition treatment by using pipet so that an effective concentration of the compound (I) in each herbicide became 500 g/ha at 1.5 leaf stage of barnyardgrass.
(§3) These plants were controlled in a glass house at an average temperature of 25° C. for 3 weeks, and then herbicidal effects thereof were investigated.
(§4) The herbicidal effects are evaluated according to the following 6 ranks as compared with non-treated district.
(§5) (0: normal development, 1: Less damaged, 2: Slightly damaged, 3: Moderately damaged, 4: Severely damaged, 5: All killed).

common lambsquartes [1] = assay: Soil treatment test for upland field; type: in vivo, Chenopodium album; settings: 500 g/ha, glass house 25° C., 3 weeks
Text: as §5
(§6) Wagner pots, each having an area of 1/5000 are, were packed with Ube soil (alluvial soil), and then each seed of corn, soybean, cotton, wheat, solgum, sugar beat, Large crabgrass, barnyardgrass, green foxtail, blackgrass, annual bluegrass, common lambsquartes, livid amaranth and velvetleaf were planted and covered with soil.
(§7) Each wettable powder of the desired compounds (I) shown in Table 1 prepared in accordance with Example 2 was diluted with water containing a surfactant (0.05%) and uniformly sprayed on the surface of each soil so that an effective concentration of the compound (I) in each herbicide became 500 g/ha. These plants were controlled in a glass house at an average temperature of 25° C. for 3 weeks, and then herbicidal effects thereof were investigated.
(§8) The herbicidal effects were evaluated according to the evaluation method described in the above (1).

livid amaranth [2] = assay: Soil treatment test for upland field; type: in vivo, Amaranthus lividus; settings: 500 g/ha, glass house 25° C., 3 weeks
Text: as §5, §6, §7, §8

sugar beat [3] = assay: Soil treatment test for upland field; type: in vivo; settings: 500 g/ha, glass house 25° C., 3 weeks
Text: as §5, §6, §7, §8

soybean = assay: Soil treatment test for upland field; type: in vivo; settings: 500 g/ha, glass house 25° C., 3 weeks
Text: as §5, §6, §7, §8

wheat [4] = assay: Soil treatment test for upland field; type: in vivo; settings: 500 g/ha, glass house 25° C., 3 weeks
Text: as §5, §6, §7, §8

solgum [5] = assay: Soil treatment test for upland field; type: in vivo; settings: 500 g/ha, glass house 25° C., 3 weeks
Text: as §5, §6, §7, §8

corn [6] = assay: Soil treatment test for upland field; type: in vivo; settings: 500 g/ha, glass house 25° C., 3 weeks
Text: as §5, §6, §7, §8

cotton = assay: Soil treatment test for upland field; type: in vivo; settings: 500 g/ha, glass house 25° C., 3 weeks
Text: as §5, §6, §7, §8

annual bluegrass = assay: Soil treatment test for upland field; type: in vivo, Poa annua; settings: 500 g/ha, glass house 25° C., 3 weeks
Text: as §5, §6, §7, §8

barnyardgrass [7] = assay: Soil treatment test for upland field; type: in vivo, Echinochloa crusgalli; settings: 500 g/ha, glass house 25° C., 3 weeks
Text: as §5, §6, §7, §8

blackgrass = assay: Soil treatment test for upland field; type: in vivo, Alopecurus aegualis; settings: 500 g/ha, glass house 25° C., 3 weeks
Text: as §5, §6, §7, §8

monochoria = assay: Herbicidal test for paddy field; type: in vivo, Monochoria vaginalis; settings: paddy field pot, 500 g/ha dropwise at 1.5 leaf stage of barnyardgrass, 3 weeks, rank vs non-treated
Method: as §1, §2, §3, §4, §5

Large crabgrass = assay: Soil treatment test for upland field; type: in vivo, Digitaria adscendens; settings: 500 g/ha, glass house 25° C., 3 weeks
Text: as §5, §6, §7, §8

barnyardgrass [8] = assay: Herbicidal test for paddy field; type: in vivo, Echinochloa crusgalli; settings: paddy field pot, 500 g/ha dropwise at 1.5 leaf stage of barnyardgrass, 3 weeks, rank vs non-treated
Method: as §1, §2, §3, §4, §5

bulrush = assay: Herbicidal test for paddy field; type: in vivo, Scrips juncoides; settings: paddy field pot, 500 g/ha dropwise at 1.5 leaf stage of barnyardgrass, 3 weeks, rank vs non-treated
Method: as §1, §2, §3, §4, §5

green foxtail = assay: Soil treatment test for upland field; type: in vivo, Setaria viridis; settings: 500 g/ha, glass house 25° C., 3 weeks
Text: as §5, §6, §7, §8

velvetleaf [9] = assay: Soil treatment test for upland field; type: in vivo, Abutilon theophrasti; settings: 500 g/ha, glass house 25° C., 3 weeks
Text: as §5, §6, §7, §8

sugar beat [10] = assay: Foliar spread test for upland field; type: in vivo; settings: foliar spray 500 ppm, 3 weeks, rank vs non-treated
Text: as §5
(§9) Wagner pots, each having an area of 1/5000 are, were packed with volcanic ash soil and then each seed of corn, soybean, cotton, wheat, solgum, sugar beat, Large crabgrass, barnyardgrass, green foxtail, blackgrass, annual bluegrass, common lambsquartes, livid amaranth, velvetleaf and morning glory was planted, covered with soil and grown in a glass house at an average temperature of […] for about 2 weeks.
(§10) Each wettable powder of the desired compounds (I) shown in Table 1 prepared in accordance with Example 2 was diluted to 500 ppm with water containing a surfactant (0.5%) and then uniformly sprayed on the above respective plants.
(§11) After these plants were controlled in a glass house at an average temperature of 25° C. for 3 weeks, the herbicidal effects thereof were investigated.
as §8

wheat [11] = assay: Foliar spread test for upland field; type: in vivo; settings: foliar spray 500 ppm, 3 weeks, rank vs non-treated
Text: as §5, §9, §10, §11, §8

solgum [12] = assay: Foliar spread test for upland field; type: in vivo; settings: foliar spray 500 ppm, 3 weeks, rank vs non-treated
Text: as §5, §9, §10, §11, §8

corn [13] = assay: Foliar spread test for upland field; type: in vivo; settings: foliar spray 500 ppm, 3 weeks, rank vs non-treated
Text: as §5, §9, §10, §11, §8

velvetleaf [14] = assay: Foliar spread test for upland field; type: in vivo, Abutilon theophrasti; settings: foliar spray 500 ppm, 3 weeks, rank vs non-treated
Text: as §5, §9, §10, §11, §8

livid amaranth [15] = assay: Foliar spread test for upland field; type: in vivo, Amaranthus lividus; settings: foliar spray 500 ppm, 3 weeks, rank vs non-treated
Text: as §5, §9, §10, §11, §8

common lambsquartes [16] = assay: Foliar spread test for upland field; type: in vivo, Chenopodium album; settings: foliar spray 500 ppm, 3 weeks, rank vs non-treated
Text: as §5, §9, §10, §11, §8

| SMILES | Effect Young rice plant (young rice plant) | Effects Common lambsquarters (common lambsquartes [1]) | Effects Livid amaranth (livid amaranth [2]) | Effects Sugar beat (sugar beat [3]) | Effects Soybean (soybean) | Effects Wheat (wheat [4]) | Effects Solgum (solgum [5]) | Effects Corn (corn [6]) | Effects Cotton (cotton) | Effects Annual bluegrass (annual bluegrass) | Effects Barnyardgrass (barnyardgrass [7]) | Effect Monochoria (monochoria) | Effects Large crabgrass (Large crabgrass) | Effect Barnyardgrass (barnyardgrass [8]) | Effect Bulrush (bulrush) | Effects Green foxtail (green foxtail) | Effects Velvetleaf (velvetleaf [9]) | Effects Sugar beat (sugar beat [10]) | Effects Wheat (wheat [11]) | Effects Solgum (solgum [12]) | other results |
| --- | --- | --- | --- | --- | --- | --- | --- | --- | --- | --- | --- | --- | --- | --- | --- | --- | --- | --- | --- | --- | --- |
| CCC(Oc1ccc(F)c(C(F)(F)F)c1)c1nc2ccc(Cl)cc2o1 (stereo not shown) [Compound 9] | 0 | 3 | 5 | 2 | 0 | 0 | 0 | 0 | 0 | 4 | 4 | 4 | 5 | 3 | 3 | 5 | – | – | – | – | Effects Blackgrass (blackgrass): 3 |
| CCC(Oc1ccc(F)c(C(F)(F)F)c1)c1nc2ccc(F)cc2o1 (stereo not shown) [Compound 27] | 0 | 3 | 5 | 1 | 0 | 0 | 0 | 0 | 0 | 3 | 1 | 5 | 4 | 1 | 4 | 4 | 1 | – | – | – | – |
| CCCC(Oc1ccc(F)c(C(F)(F)F)c1)c1nc2cc(S(C)(=O)=O)ccc2o1 (stereo not shown) [Compound 217] | 1 | 5 | 5 | 5 | 0 | 0 | 0 | 0 | 1 | 4 | – | 4 | 5 | – | 2 | 5 | 5 | – | – | – | Effects Blackgrass (blackgrass): 2 |
| CCC(Oc1cccc(C#N)c1)c1nc2cc(Cl)ccc2o1 (stereo not shown) [Compound 353] | 0 | – | – | – | – | – | – | – | – | – | – | 5 | – | 3 | 4 | – | – | – | – | – | – |
| CCCCC(Oc1ccc(F)c(C(F)(F)F)c1)c1nc2cc(Cl)ccc2o1 (stereo not shown) [Compound 476] | – | 3 | 5 | 3 | 0 | 0 | 0 | 0 | 0 | 4 | – | – | 3 | – | – | 4 | 2 | 5 | 1 | 0 | Effects Corn (corn [13]): 1; Effects Velvetleaf (velvetleaf [14]): 2; Effects Livid amaranth (livid amaranth [15]): 5; Effects Common lambsquarters (common lambsquartes [16]): 5 |
| CCCC(Oc1cccc(C(F)(F)F)c1)c1nc2cc(S(C)(=O)=O)c(C)cc2o1 (stereo not shown) [Compound 489] | – | 4 | 5 | 5 | 0 | 0 | 0 | 1 | 0 | 5 | – | – | 2 | – | – | 4 | 3 | 5 | 1 | 1 | Effects Corn (corn [13]): 1; Effects Velvetleaf (velvetleaf [14]): 3; Effects Livid amaranth (livid amaranth [15]): 5; Effects Common lambsquarters (common lambsquartes [16]): 5 |
| CCC(Oc1cccc(C(F)(F)F)c1)c1nc2cc(S(C)(=O)=O)c(C)cc2o1 (stereo not shown) [Compound 490] | – | – | – | – | – | – | – | – | – | – | – | – | – | – | – | – | – | 4 | 1 | 1 | Effects Corn (corn [13]): 1; Effects Velvetleaf (velvetleaf [14]): 4; Effects Livid amaranth (livid amaranth [15]): 4; Effects Common lambsquarters (common lambsquartes [16]): 5 |
| CCCC(Oc1cccc(C#N)c1)c1nc2cc(F)c(Cl)cc2o1 (stereo not shown) [Compound 501] | 1 | – | – | – | – | – | – | – | – | – | – | 3 | – | 3 | – | – | – | – | – | – | – |
| CCC(Oc1ccc(F)c(C(F)(F)F)c1)c1nc2cc(C#N)c(Cl)cc2o1 (stereo not shown) [Compound 517] | 2 | 3 | 5 | 5 | 0 | 0 | 0 | 0 | 0 | – | 3 | 3 | 3 | 3 | 3 | 4 | 3 | – | – | – | – |
